Laboratory results as given in patent US20220307021A1, “A NEUROPILIN ANTAGONIST IN COMBINATION WITH A P38ALPHA-KINASE INHIBITOR FOR THE TREATMENT OF CANCER” (INSERM (Institut National de la santé et de la Recherche …, priority 2019, published 2022).

Columns and labels:
[1] = molecular target: selected panel of 40 protein kinases; assay: Protein kinase profiling (Eurofins); assay type: biochemical; conditions: 1 μM of each NRPa, relative to DMSO control
Experimental: NRPa-47 and NRPa-48 specificity profiling assays were carried out at Eurofins Pharma Discovery Services (Dundee, UK) for Protein Kinase Profiling against a selected panel of 40 protein kinases. Results of protein kinases assayed at 1 μM of each NRPa are presented as a percentage of kinase activity in DMSO control reactions.

p38α = assay: Human phosphokinase proteome profiler array, MDA-MB-231; assay type: cell-based; conditions: MDA-MB-231, compound at IC50, 10 and 60 minutes
Experimental: (§1) MDA-MB-231 cells were incubated in the presence or absence of NRPa-47 or NRPa-48 compounds (IC50) and protein lysates were prepared and quantified as previously described. Biochemical signaling detection was evaluated by using human proteome profiler array (human phosphokinase array and human apoptosis array) according to the manufacturer's instructions (R&D systems, France). Briefly, capture and control antibodies were spotted in duplicate on nitrocellulose membranes. Cellular extracts were incubated overnight on membrane, washed to remove unbound proteins, followed by incubation with a cocktail of biotinylated detection antibodies. Streptavidin-HRP and chemiluminescent detection reagents were applied, and the signal intensity corresponding to the amount of protein bound was measured at each capture spot using ImageJ software.

p38β/p38γ/p38δ = assay: as above; assay type: cell-based; conditions: MDA-MB-231, compound at IC50, 10 and 60 minutes
Experimental: as §1

ERK-1/-2 = assay: as above; assay type: cell-based; conditions: MDA-MB-231, compound at IC50, 10 and 60 minutes
Experimental: as §1

AKT-1/-2/-3/-pan = assay: as above; assay type: cell-based; conditions: MDA-MB-231, compound at IC50, 10 and 60 minutes
Experimental: as §1

JNK-1/-2/-3/-pan = assay: as above; assay type: cell-based; conditions: MDA-MB-231, compound at IC50, 10 and 60 minutes
Experimental: as §1

MDA-MB-231 [2] = conditions: read-out: half maximal inhibitory anti-proliferative concentration (IC50); MDA-MB-231, previously reported; cited from earlier work
HIF-1α mRNA = assay: RT-PCR of HIF-1α mRNA in MDA-MB-231; assay type: cell-based, human; conditions: MDA-MB-231, time dependent, maximum effect at 60 minutes
Experimental: (§2) MDA-MB-231 RNA was extracted with NucleoSpinRNA II kit (Macherey-Nagel, France) and quantified using Nanodrop (ND-1000 spectrophotometer). 1 μg of each RNA sample was reverse-transcripted into cDNA using iScript cDNA Synthesis Kit (Bio-Rad, France) following the manufacturer's instructions. PCR amplification was performed in reaction mixture (25 μL) containing 200 μM of each dNTP, 1 μg of cDNA, 1 μM of primers and 0.625 U of GoTaq DNA Polymerase (Promega, France) with 45 s of denaturation at 95° C., 45 s of annealing at 60° C. and 1 min of extension at 72° C. for 30 cycles. PCR products were separated by 1% agarose gel electrophoresis, stained with ethidium bromide (Sigma, Germany) and analyzed using Gel Doc 2000 System (Bio-Rad, France).

[3] = system: RSK-1/RSK-2, MSK-2, HSP-27, GSK-3, p70S6K; assay: Human phosphokinase proteome profiler array, MDA-MB-231: downstream kinase substrates; assay type: cell-based; conditions: MDA-MB-231, compound at IC50, 10 and 60 minutes
Experimental: as §1

MDA-MB-231 [4] = assay: Human apoptosis proteome profiler array, MDA-MB-231; assay type: cell-based; conditions: for HIF-1α expression: MDA-MB-231, compound at IC50
Experimental: as §1

VEGF-A165 mRNA = assay: RT-PCR of VEGF-A165 mRNA in MDA-MB-231; assay type: cell-based, human; conditions: MDA-MB-231, time dependent, maximum effect at 60 minutes
Experimental: as §2

VEGF-A165/NRP-1 = molecular target: T1, VEGF-A165/NRP-1 (Homo sapiens, UniProt O14786); conditions: previously described [15]; cited from earlier work
T1 sequence (O14786 22-856 limits assumed): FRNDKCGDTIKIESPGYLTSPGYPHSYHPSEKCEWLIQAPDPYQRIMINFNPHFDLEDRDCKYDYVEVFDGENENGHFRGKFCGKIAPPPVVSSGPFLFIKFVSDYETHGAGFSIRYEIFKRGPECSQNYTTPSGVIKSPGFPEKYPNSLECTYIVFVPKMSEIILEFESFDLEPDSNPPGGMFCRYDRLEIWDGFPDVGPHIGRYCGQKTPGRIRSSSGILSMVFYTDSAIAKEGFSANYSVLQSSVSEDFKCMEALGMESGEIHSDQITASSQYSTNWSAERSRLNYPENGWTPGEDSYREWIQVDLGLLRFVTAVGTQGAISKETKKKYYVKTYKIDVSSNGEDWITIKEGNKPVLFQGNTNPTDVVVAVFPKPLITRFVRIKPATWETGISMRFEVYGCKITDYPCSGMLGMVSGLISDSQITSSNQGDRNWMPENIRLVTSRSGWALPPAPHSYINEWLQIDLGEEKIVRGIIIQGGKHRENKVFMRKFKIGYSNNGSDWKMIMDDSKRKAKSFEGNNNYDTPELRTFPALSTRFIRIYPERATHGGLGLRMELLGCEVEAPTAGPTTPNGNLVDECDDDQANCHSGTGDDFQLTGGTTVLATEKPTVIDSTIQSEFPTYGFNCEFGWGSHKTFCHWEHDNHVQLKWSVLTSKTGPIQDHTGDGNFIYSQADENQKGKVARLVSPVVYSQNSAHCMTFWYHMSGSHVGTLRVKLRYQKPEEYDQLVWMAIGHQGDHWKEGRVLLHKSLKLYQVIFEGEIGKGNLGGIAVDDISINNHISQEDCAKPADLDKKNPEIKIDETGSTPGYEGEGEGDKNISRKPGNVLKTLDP

[5] = system: MDA-MB-231-xenografted NOG mice; assay: In vivo xenografted-tumor mouse model
Experimental: Protocol was approved by the INSERM Institutional Care and Use Committee according to the European Communities Council Directive. NOD/scid/IL-2Rγ−/− (NOG) female mice were bred and housed in pathogen-free conditions in accordance with the Federation of European Animal Associations (FELSA) guidelines. […]. […] Tumor growth and body weight were measured every three days during the treatment. Mice were weighed regularly to assess the toxicity of the treatment and the tumors were measured with calipers (width×width×length×Pi/6) to determine growth.

[6] = MDA-MB-231, compound at IC50, 60 minutes and 48 hours

Cc1ccc(-c2nc3ccccc3[nH]2)cc1NC(=S)NC(=O)c1ccc2c(c1)OCCO2 [NRPa-47, N-[5-(1H-benzimidazol-2-yl)-2-methylphenyl]-N′-(2,3-dihydro-1,4-benzodioxin-6-ylcarbonyl)thiourea]
kinase activity of 40-selected kinases in vitro [1]: None of these were significantly affected | p38α phosphorylation (p38α): significantly decreased | p38β/p38γ/p38δ phosphorylation (p38β/p38γ/p38δ): no significant variation | ERK-1/-2 phosphorylation (ERK-1/-2): significant hyper-phosphorylations | AKT-1/-2/-3/-pan phosphorylation (AKT-1/-2/-3/-pan): up-regulated | JNK-1/-2/-3/-pan phosphorylation (JNK-1/-2/-3/-pan): significant hyper-phosphorylations | IC50 (MDA-MB-231 [2]): 600 nM | HIF-1α mRNA expression (HIF-1α mRNA): reduced | GSK-3 phosphorylation [3]: affected | HSP27 phosphorylation [3]: dephosphorylated | MSK2 phosphorylation [3]: dephosphorylated | RSK-1 phosphorylation [3]: remained unchanged | RSK-2 phosphorylation [3]: increase in phosphorylation | p70S6K phosphorylation [3]: up-regulated | HIF-1α expression (MDA-MB-231 [4]): inhibit HIF-1α expression | anti-apoptotic proteins (Bcl-2, Bcl-x, cIAP-1, cIAP-2, XIAP, Survivin, Livin, Clusterin) and heat shock proteins (HSP-27/-60/-70) level (MDA-MB-231 [4]; [6]): significantly reduced | caspase-3 cleavage (MDA-MB-231 [4]; [6]): induction | catalase (oxidative stress) (MDA-MB-231 [4]; [6]): catalase induction | cell cycle protein expression (p21, p27) and phosphorylation of Rad-17 (MDA-MB-231 [4]; [6]): reduction | heme oxygenase HO-1/HMOX1/HSP32 and HO-2/HMOX2 expression (MDA-MB-231 [4]; [6]): both reduced | p53 phosphorylation sites (MDA-MB-231 [4]; [6]): inhibited | pro-apoptotic proteins (Bad, Bax, SMAC/Diablo, HTRA2/Omi, cytochrome c) level (MDA-MB-231 [4]; [6]): rapid decrease | VEGF-A165 mRNA expression (VEGF-A165 mRNA): reduced | VEGF-A165/NRP-1 binding (VEGF-A165/NRP-1): inhibited VEGF-A165/NRP-1 binding

O=C(NC(=S)Nc1cccc(-c2nc3ccccc3[nH]2)c1)c1ccc2c(c1)OCCO2 [NRPa-48, N-[3-(1H-benzimidazol-2-yl)phenyl]-N′-(2,3-dihydro-1,4-benzodioxin-6-ylcarbonyl)thiourea]
kinase activity of 40-selected kinases in vitro [1]: None of these were significantly affected | p38α phosphorylation (p38α): significantly inhibited | p38β/p38γ/p38δ phosphorylation (p38β/p38γ/p38δ): significantly inhibited | ERK-1/-2 phosphorylation (ERK-1/-2): significantly inhibited | AKT-1/-2/-3/-pan phosphorylation (AKT-1/-2/-3/-pan): inhibited from 10 minutes until 60 minutes | JNK-1/-2/-3/-pan phosphorylation (JNK-1/-2/-3/-pan): significantly inhibited | IC50 (MDA-MB-231 [2]): 400 nM | body weight of treated animals ([5]; 50 mg/kg by force-feeding, three times a week): did not show any loss of weight | treated mice alive at the end of treatment ([5]; 50 mg/kg force-feeding): 62% | tumor size reduction compared to the reference group ([5]; 50 mg/kg force-feeding, Day-38 (21 days after starting treatment)): approximately 29% | tumor size reduction ([5]; 50 mg/kg force-feeding, Day-45): 34% | median survival ([5]; 50 mg/kg force-feeding, control group 35 days): over 56 days | GSK-3 phosphorylation [3]: inhibited in a time dependent manner | HSP27 phosphorylation [3]: inhibited in a time dependent manner | MSK2 phosphorylation [3]: inhibited in a time dependent manner | RSK-1 phosphorylation [3]: inhibited in a time dependent manner | RSK-2 phosphorylation [3]: inhibited in a time dependent manner | HIF-1α expression (MDA-MB-231 [4]): inhibit HIF-1α expression | PON-2 level (MDA-MB-231 [4]; [6]): remained unchanged | anti-apoptotic proteins (Bcl-2, Bcl-x, cIAP-1, cIAP-2, XIAP, Survivin, Livin, Clusterin) and heat shock proteins (HSP-27/-60/-70) level (MDA-MB-231 [4]; [6]): down-modulated | caspase-3 cleavage (MDA-MB-231 [4]; [6]): induction | catalase (oxidative stress) (MDA-MB-231 [4]; [6]): high level of catalase | cell cycle protein expression (p21, p27) and phosphorylation of Rad-17 (MDA-MB-231 [4]; [6]): reduction | heme oxygenase HO-1/HMOX1/HSP32 and HO-2/HMOX2 expression (MDA-MB-231 [4]; [6]): both reduced | p53 phosphorylation sites (MDA-MB-231 [4]; [6]): inhibited | pro-apoptotic proteins (Bad, Bax, SMAC/Diablo, HTRA2/Omi, cytochrome c) level (MDA-MB-231 [4]; [6]): significantly decreased
